How the values were obtained:
Format in all cases: physicochemical
[1] = critical micelle concentration by dynamic surface tension (maximum bubble pressure method); details: aqueous solution
Experimental: The dynamic surface tension measurements were conducted using a SENSADYNE® QC3000 dynamic surface tensiometer (available from the SENSADYNE® Instruments Division of the Chem-Dyne Research Corporation, Mesa, Ariz.) that utilizes the maximum bubble pressure method. The fundamental operating principles and theoretical considerations of this method are explained in detail elsewhere, and a brief summary only is given here. Two glass probes with different orifice diameters (0.5 and 4.0 mm) were submerged in an aqueous surfactant solution and nitrogen was bubbled through the samples. Dry nitrogen was used as the bubble source gas and was delivered to the instrument at 50 psi. The instrument was operated at a bubble frequency of 0.5 Hz to approximate equilibrium surface tension values for each sample. The differential pressure signal generated by bubble formation is related to the interfacial surface tension of the liquid and gas. Surface tension calibration was carried out by measuring the surface tension of deionized water and ethanol and comparing to known literature values. Solution temperature was monitored with a calibrated thermistor (± 0.1° C.) attached to the orifice probes. Instrumental calibration was conducted for every change in experimental conditions and after prolonged periods of instrumental quiescence. All experiments were conducted at 25.0±0.2° C. unless otherwise noted. […]

[2] = retro-DA degradation via surface tension; details: 10 mM aqueous solution
Experimental: The surfactants of the invention undergo the retro-DA reaction after exposure to elevated temperatures. […] Data were recorded for all experiments via a computer interface using the […]3000 version 5.3 software. […] Additional measurements to determine the effect of temperature on the rates of surfactant dissociation and loss of surface active properties were conducted on 10 mM solutions of surfactant 3. The data shown in FIG. 3 clearly indicate that the temperature at which the samples are elevated to has a dramatic impact on the rate at which the surface active properties are lost in these solutions. […] At the lowest temperature monitored, 55° C., it takes over 30 hours of exposure to eliminate surface activity. The data has been fit with a logistic 4-parameter algorithm using SIGMAPLOT® (available from Systat Software, Inc., Richmond, Calif.). […] The effective control of the surface active properties of the system is envisioned to be accomplished by manipulating one or any combination of these parameters. It should also be noted that all of the surface tension measurements of the cleaved samples were taken after the samples had cooled to ambient conditions, and are convincing evidence that the dissociation accompanying the retro DA is irreversible in micelles.

[3] = retro-DA degradation via 1H NMR; details: 65° C., 10 mM aqueous sample, isothermal
From the text: Percent degradation was tracked by recording the decrease in the integral value for the bridge head proton of the DA adduct located at 5.02 ppm. […] It is important to note that the percent degradation of surfactant 5 over various temperatures is not necessarily linear. This is a result of the Keq for the reversible DA reaction with DA adduct formation/stability dominating at lower temperatures.

## CCCCCCCCCCCCC12C=CC(O1)C1C(=O)N(c3ccc(S(=O)(=O)[O-])cc3)C(=O)C12.[Na+] (stereo not drawn) [surfactant 3, exo-4-Dodecyl-7-oxabicyclo[2.2.1]hept-5-ene-2,3-dicarboxy-N-(4-sodiumsulfophenyl)imide]
[1]; 25.0±0.2° C., bubble frequency 0.5 Hz
  cmc by dynamic surface tension measurements: 5.1 mM
[1]; FIG. 2
  second inflection point of surface tension vs concentration (micelles begin to form): ~5 mM
[2]; 55° C.
  time of exposure to eliminate surface activity: over 30 hours
[2]; 95° C.
  time of exposure to loss of all surface activity (surface tension is that of water): ≤ 1 h
[3]
  time of heating to complete degradation (1H NMR): about 10 hours

— patent US7351837B1, “Thermally cleavable surfactants without deprotonation” (Sandia Corporation, priority 2004, dated 2008)
